Measurements as given in PMC8361756, “Treatment of Cardiovascular Dysfunction With PDE5-Inhibitors – Temperature Dependent Effects on Transport and Metabolism of cAMP and cGMP” (Frontiers in Physiology, 2021).
Like-named read-outs stand apart in the source and are kept apart here.

What was measured:
PDE3 = conditions: for IC25–IC75 interval PDE3: concentration needed to increase inhibition from 25% to 75%; for IC50: read-out: IC50 PDE3, 5 μM cAMP, 30 min; for Ki: read-out: Ki PDE3-inhibition, Cheng-Prusoff from IC50
Experimental: (§1) The assays were performed in triplicates at three different days. […] The reaction was started by adding either a solution containing 0.016 units/μg protein of PDE3 (Abcam, Cambridge United Kingdom), or 0.022 units/μg protein of PDE5 (Sigma-Aldrich, St. Louis, MO, United States), to the Eppendorf tubes. Parallels for cAMP-metabolism included PDE3 only and parallels for cGMP-metabolism included PDE5 only. Control samples were free of drug and was either with or without PDE3 or PDE5. This was done to assure that only the relevant PDE was responsible for breakdown of the cyclic nucleotide, as no other enzyme nor cellular material was added to the incubations. The incubation time was 30 min (see Table 2). Reaction was stopped by adding methanol to the tubes. Internal standard of cGMP/GMP or cAMP/AMP (Sigma-Aldrich, St. Louis, MO, United States, Germany and Toronto Research Chemicals Inc., Toronto, ON, Canada) were added to each sample. Five samples contained only known concentrations of cGMP/GMP or cAMP/AMP and served as calibrators. Samples were analyzed for cGMP/GMP and cAMP/AMP content, using MS.

PDE5 = PDE5 (Homo sapiens, UniProt O76074); conditions: concentration needed to increase inhibition from 25% to 75%
Experimental: as §1

[1] = ref Walker (1999); cited from earlier work
cGMP-efflux (ABCC5) = cGMP-efflux (ABCC5) (Homo sapiens, UniProt O15440); type: biochemical; conditions: for IC25–IC75 interval cGMP-efflux: concentration needed to increase inhibition from 25% to 75%
Experimental: (§2) Cellular extrusion was determined using the inside-out vesicle (IOV) method where erythrocytes from healthy, human donors were sampled. […] The erythrocytes were separated from plasma by centrifugation and washed. […] The membrane vesiculation was initiated by adding […] buffer to the cell suspension. After centrifugation, the suspension was forced through a syringe needle to enhance homogenization of the membranes. IOVs were separated from right side out vesicles (ROV) and unsealed erythrocyte membranes (ghosts) by ultracentrifugation overnight using a density gradient. The uppermost band was collected, washed, and resuspended. […] Batches of IOVs used in the parallels were made eight times, including blood from a total of 35 healthy donors.
(§3) The incubation solutions also included radioactive labeled [^3H]-cGMP and [^3H]-cAMP (Perkin Elmer, Boston, MA, United States), at a concentration of, respectively, 2 μM and 20 μM. […] Incubation time of 60 min was chosen to ensure sufficient quality of the samples for each parallel (Table 2). The transport was stopped by adding ice cold buffer. The IOVs were then filtered through a nitrocellulose membrane (Bio-Rad Laboratories, Feldkirchen, Germany), and the membrane was dried. The dried membranes were later added scintillation fluid and radioactivity was measured using a Packard TopCount NXT (Packard, Downers Grove, IL, United States).
(§4) Experiments determined total ATP-dependent cellular efflux of cGMP or cAMP from IOVs.

cAMP-efflux (ABCC4) = molecular target: T1, cAMP-efflux (ABCC4) (Homo sapiens, UniProt O15439); assay: biochemical; type: biochemical; conditions: for Inhibition of cAMP-efflux: 1.00 nM to 1.00 mM; for Inhibition of cAMP-efflux / IC50: 60 min, IOV; for IC25–IC75 interval cAMP-efflux: concentration needed to increase inhibition from 25% to 75%; for IC50: 20 μM [3H]-cAMP; for Ki: Cheng-Prusoff from IC50
T1 construct: from tissue; host or cells: human erythrocyte membranes (inside-out vesicles), pooled donors
T1 sequence (O15439 1-1325): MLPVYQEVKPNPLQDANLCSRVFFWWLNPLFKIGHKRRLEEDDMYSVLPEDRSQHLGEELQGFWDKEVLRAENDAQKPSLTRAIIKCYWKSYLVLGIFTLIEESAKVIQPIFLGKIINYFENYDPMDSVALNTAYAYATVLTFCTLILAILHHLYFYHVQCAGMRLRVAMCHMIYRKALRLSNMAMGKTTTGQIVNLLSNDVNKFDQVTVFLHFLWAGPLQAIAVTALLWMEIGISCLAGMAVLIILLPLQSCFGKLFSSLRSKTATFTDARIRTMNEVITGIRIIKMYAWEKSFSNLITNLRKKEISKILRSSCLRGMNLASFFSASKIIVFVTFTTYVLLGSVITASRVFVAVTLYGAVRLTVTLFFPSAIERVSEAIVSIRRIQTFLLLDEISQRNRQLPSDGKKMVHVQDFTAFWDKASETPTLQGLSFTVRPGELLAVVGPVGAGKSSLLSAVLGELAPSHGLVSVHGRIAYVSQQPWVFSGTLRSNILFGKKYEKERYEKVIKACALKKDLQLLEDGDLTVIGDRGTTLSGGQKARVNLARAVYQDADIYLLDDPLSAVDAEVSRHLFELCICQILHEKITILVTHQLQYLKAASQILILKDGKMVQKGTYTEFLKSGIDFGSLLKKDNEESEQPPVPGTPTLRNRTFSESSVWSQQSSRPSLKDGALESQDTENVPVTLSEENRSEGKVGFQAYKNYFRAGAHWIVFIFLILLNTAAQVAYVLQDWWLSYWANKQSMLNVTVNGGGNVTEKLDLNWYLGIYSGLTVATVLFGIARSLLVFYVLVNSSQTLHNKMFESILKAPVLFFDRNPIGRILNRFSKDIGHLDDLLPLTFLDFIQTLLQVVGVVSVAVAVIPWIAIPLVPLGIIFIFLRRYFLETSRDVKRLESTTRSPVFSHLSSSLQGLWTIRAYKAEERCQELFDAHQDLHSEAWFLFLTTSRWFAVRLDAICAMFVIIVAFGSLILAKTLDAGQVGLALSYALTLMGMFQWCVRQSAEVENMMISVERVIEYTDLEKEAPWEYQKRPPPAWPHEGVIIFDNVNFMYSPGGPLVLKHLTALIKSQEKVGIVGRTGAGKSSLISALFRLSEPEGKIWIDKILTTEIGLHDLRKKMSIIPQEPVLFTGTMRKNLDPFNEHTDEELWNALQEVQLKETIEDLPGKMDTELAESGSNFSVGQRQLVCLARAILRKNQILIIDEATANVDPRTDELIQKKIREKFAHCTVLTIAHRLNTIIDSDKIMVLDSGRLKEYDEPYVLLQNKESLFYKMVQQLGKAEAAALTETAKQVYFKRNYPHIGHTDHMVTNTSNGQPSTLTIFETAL
Experimental: as §2, §3, §4

cGMP-efflux (ABCC5), sequence (O15440 whole entry): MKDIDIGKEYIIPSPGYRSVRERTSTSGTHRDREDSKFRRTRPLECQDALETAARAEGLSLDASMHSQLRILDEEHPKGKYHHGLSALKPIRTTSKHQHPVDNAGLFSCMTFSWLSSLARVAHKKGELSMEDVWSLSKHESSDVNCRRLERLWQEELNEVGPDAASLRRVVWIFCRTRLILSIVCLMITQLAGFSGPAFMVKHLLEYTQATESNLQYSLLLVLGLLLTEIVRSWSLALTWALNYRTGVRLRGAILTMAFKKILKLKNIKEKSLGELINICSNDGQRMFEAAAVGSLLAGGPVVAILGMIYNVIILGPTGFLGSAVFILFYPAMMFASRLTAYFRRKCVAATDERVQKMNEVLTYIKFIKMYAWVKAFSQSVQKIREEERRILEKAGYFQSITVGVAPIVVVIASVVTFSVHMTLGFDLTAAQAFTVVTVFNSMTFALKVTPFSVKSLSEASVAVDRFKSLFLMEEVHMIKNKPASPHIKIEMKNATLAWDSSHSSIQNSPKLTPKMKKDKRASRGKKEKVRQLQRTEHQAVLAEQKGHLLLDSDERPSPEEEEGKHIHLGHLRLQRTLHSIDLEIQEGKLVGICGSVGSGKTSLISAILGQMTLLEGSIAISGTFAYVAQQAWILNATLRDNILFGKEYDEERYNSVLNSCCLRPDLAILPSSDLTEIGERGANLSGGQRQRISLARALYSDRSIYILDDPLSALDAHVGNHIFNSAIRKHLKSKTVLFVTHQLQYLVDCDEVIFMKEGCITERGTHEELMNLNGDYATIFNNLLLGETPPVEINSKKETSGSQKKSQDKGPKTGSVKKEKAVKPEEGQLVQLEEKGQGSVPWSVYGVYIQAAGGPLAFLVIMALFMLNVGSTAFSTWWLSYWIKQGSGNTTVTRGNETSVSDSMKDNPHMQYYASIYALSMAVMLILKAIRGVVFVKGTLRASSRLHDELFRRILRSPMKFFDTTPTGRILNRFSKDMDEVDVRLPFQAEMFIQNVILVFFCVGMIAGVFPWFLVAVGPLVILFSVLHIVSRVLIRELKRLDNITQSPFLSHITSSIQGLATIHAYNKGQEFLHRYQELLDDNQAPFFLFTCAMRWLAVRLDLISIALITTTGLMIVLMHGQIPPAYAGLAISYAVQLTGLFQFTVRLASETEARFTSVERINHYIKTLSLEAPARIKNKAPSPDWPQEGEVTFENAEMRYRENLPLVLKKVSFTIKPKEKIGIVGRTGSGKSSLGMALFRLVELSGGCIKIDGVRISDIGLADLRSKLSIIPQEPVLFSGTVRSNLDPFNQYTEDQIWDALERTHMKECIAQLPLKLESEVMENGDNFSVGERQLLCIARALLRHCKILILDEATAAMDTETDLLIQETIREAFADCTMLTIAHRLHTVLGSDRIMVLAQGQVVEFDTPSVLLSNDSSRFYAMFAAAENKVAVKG

CCCc1nn(C)c2c(=O)[nH]c(-c3cc(S(=O)(=O)N4CCN(C)CC4)ccc3OCC)nc12 [Sildenafil]
IC25–IC75 interval PDE3 (PDE3; 20°C): […] | IC25–IC75 interval PDE3 (PDE3; 20°C, listed as sildenafil): […] | IC25–IC75 interval PDE3 (PDE3; 24°C): […] | IC25–IC75 interval PDE3 (PDE3; 28°C): […] | IC25–IC75 interval PDE3 (PDE3; 32°C): […] | IC25–IC75 interval PDE3 (PDE3; 34°C): […] | IC25–IC75 interval PDE3 (PDE3; 37°C): […] | IC50 (PDE3; 20°C): […] | IC50 (PDE3; 24°C): […] | IC50 (PDE3; 28°C): […] | IC50 (PDE3; 32°C): […] | IC50 (PDE3; 34°C): […] | IC50 (PDE3; 37°C): […] | IC25–IC75 interval PDE5 (PDE5; 20°C): 0.132 ± 0.048 µM | IC25–IC75 interval PDE5 (PDE5; 20°C, listed as sildenafil): 0.132 ± 0.048 µM | IC25–IC75 interval PDE5 (PDE5; 24°C): 0.098 ± 0.012 µM | IC25–IC75 interval PDE5 (PDE5; 24°C, listed as sildenafil): 0.098 ± 0.012 µM | IC25–IC75 interval PDE5 (PDE5; 28°C): 0.083 ± 0.008 µM | IC25–IC75 interval PDE5 (PDE5; 32°C): 0.060 ± 0.006 µM | IC25–IC75 interval PDE5 (PDE5; 34°C): 0.055 ± 0.004 µM | IC25–IC75 interval PDE5 (PDE5; 37°C): 0.038 ± 0.000 µM | Protein binding [1]: 94–96% | IC25–IC75 interval cGMP-efflux (cGMP-efflux (ABCC5); 20°C): 19.2 ± 8.45 µM | IC25–IC75 interval cGMP-efflux (cGMP-efflux (ABCC5); 24°C): 11.4 ± 4.73 µM | IC25–IC75 interval cGMP-efflux (cGMP-efflux (ABCC5); 28°C): 12.0 ± 1.96 µM | IC25–IC75 interval cGMP-efflux (cGMP-efflux (ABCC5); 32°C): 9.76 ± 3.99 µM | IC25–IC75 interval cGMP-efflux (cGMP-efflux (ABCC5); 34°C): 13.5 ± 1.74 µM | IC25–IC75 interval cGMP-efflux (cGMP-efflux (ABCC5); 37°C): 23.6 ± 9.08 µM | Inhibition of cAMP-efflux (cAMP-efflux (ABCC4); 20°C): neither of the drugs were able to inhibit cAMP-efflux | Inhibition of cAMP-efflux (cAMP-efflux (ABCC4); 24°C): neither of the drugs were able to inhibit cAMP-efflux | IC25–IC75 interval cAMP-efflux (cAMP-efflux (ABCC4); 28°C): 13.8 ± 3.85 µM | IC25–IC75 interval cAMP-efflux (cAMP-efflux (ABCC4); 32°C): 20.0 ± 4.27 µM | IC25–IC75 interval cAMP-efflux (cAMP-efflux (ABCC4); 34°C): 19.8 ± 1.82 µM | IC25–IC75 interval cAMP-efflux (cAMP-efflux (ABCC4); 37°C): 27.1 ± 9.36 µM

CCCc1nc(C)c2c(=O)[nH]c(-c3cc(S(=O)(=O)N4CCN(CC)CC4)ccc3OCC)nn12 [Vardenafil]
IC25–IC75 interval PDE3 (PDE3; 20°C): 709 ± 105 µM | IC25–IC75 interval PDE3 (PDE3; 24°C): 148 ± 31.9 µM | IC25–IC75 interval PDE3 (PDE3; 28°C): 128 ± 35.9 µM | IC25–IC75 interval PDE3 (PDE3; 32°C): 107 ± 27.0 µM | IC25–IC75 interval PDE3 (PDE3; 34°C): 72.1 ± 3.24 µM | IC25–IC75 interval PDE3 (PDE3; 37°C): 61.0 ± 14.3 µM | IC50 (PDE3; 20°C): 73.4 ± 26.3 µM | IC50 (PDE3; 24°C): 55.5 ± 4.75 µM | IC50 (PDE3; 28°C): 32.7 ± 11 µM | IC50 (PDE3; 32°C): 40.5 ± 3.78 µM | IC50 (PDE3; 34°C): 24.9 ± 5.73 µM | IC50 (PDE3; 37°C): 16.5 ± 6.08 µM | Ki (PDE3; 20°C): 3.36 ± 1.21 µM | Ki (PDE3; 24°C): 2.54 ± 0.218 µM | Ki (PDE3; 28°C): 1.5 ± 0.505 µM | Ki (PDE3; 32°C): 1.85 ± 0.173 µM | Ki (PDE3; 34°C): 1.14 ± 0.263 µM | Ki (PDE3; 37°C): 0.757 ± 0.276 µM | IC25–IC75 interval PDE5 (PDE5; 20°C): 0.103 ± 0.027 µM | IC25–IC75 interval PDE5 (PDE5; 24°C): 0.074 ± 0.005 µM | IC25–IC75 interval PDE5 (PDE5; 28°C): 0.049 ± 0.016 µM | IC25–IC75 interval PDE5 (PDE5; 32°C): 0.062 ± 0.016 µM | IC25–IC75 interval PDE5 (PDE5; 34°C): 0.028 ± 0.012 µM | IC25–IC75 interval PDE5 (PDE5; 37°C): 0.059 ± 0.029 µM | IC25–IC75 interval cGMP-efflux (cGMP-efflux (ABCC5); 20°C): 28.1 ± 14.6 µM | IC25–IC75 interval cGMP-efflux (cGMP-efflux (ABCC5); 24°C): 13.0 ± 1.74 µM | IC25–IC75 interval cGMP-efflux (cGMP-efflux (ABCC5); 28°C): 10.6 ± 2.75 µM | IC25–IC75 interval cGMP-efflux (cGMP-efflux (ABCC5); 32°C): 18.0 ± 4.12 µM | IC25–IC75 interval cGMP-efflux (cGMP-efflux (ABCC5); 34°C): 19.2 ± 3.16 µM | IC25–IC75 interval cGMP-efflux (cGMP-efflux (ABCC5); 37°C): 12.6 ± 3.89 µM | Linear regression equation, IC50 inhibition of cGMP-efflux vs temperature (cGMP-efflux (ABCC5); not told): y = 9.64 − 0.098x | Inhibition of cAMP-efflux (cAMP-efflux (ABCC4); 20°C): neither of the drugs were able to inhibit cAMP-efflux | Inhibition of cAMP-efflux (cAMP-efflux (ABCC4); 24°C): neither of the drugs were able to inhibit cAMP-efflux | IC50 (cAMP-efflux (ABCC4); 28°C): 9.63 ± 5.79 µM | Ki (cAMP-efflux (ABCC4); 28°C): 5.84 ± 3.51 µM | IC25–IC75 interval cAMP-efflux (cAMP-efflux (ABCC4); 28°C): 17.3 ± 6.59 µM | IC50 (cAMP-efflux (ABCC4); 32°C): 13 ± 1.69 µM | Ki (cAMP-efflux (ABCC4); 32°C): 7.86 ± 1.02 µM | IC25–IC75 interval cAMP-efflux (cAMP-efflux (ABCC4); 32°C): 27.3 ± 6.19 µM | IC50 (cAMP-efflux (ABCC4); 34°C): 5.82 ± 0.685 µM | Ki (cAMP-efflux (ABCC4); 34°C): 3.53 ± 0.415 µM | IC25–IC75 interval cAMP-efflux (cAMP-efflux (ABCC4); 34°C): 19.9 ± 0.967 µM | IC50 (cAMP-efflux (ABCC4); 37°C): 5.85 ± 0.51 µM | Ki (cAMP-efflux (ABCC4); 37°C): 3.55 ± 0.311 µM | IC25–IC75 interval cAMP-efflux (cAMP-efflux (ABCC4); 37°C): 30.9 ± 6.82 µM | Linear regression equation, IC50 inhibition of cAMP-efflux vs temperature (cAMP-efflux (ABCC4); not told): y = 26.4 − 0.545x
